pIC50: −log10 of the molar value.
How the values were obtained:
[1] = Aqueous stability in phosphate buffer by UHPLC; type: physicochemical; details: for UHPLC peak integral, stability: method A
Protocol: For stability measurements BSO-OxOAc (1 mM) was dissolved in phosphate buffer (100 mM, pH 7.4). For reduction experiments BSO-OxOAc (2 mM) was dissolved in phosphate buffer (500 mM, pH 7.4). A 20 mM solution of AA in the same buffer was added in a 1:1 ratio. The samples were immediately measured on a Dionex UltiMate 3000 RS UHPLC system equipped with a Waters Acquity UPLC® BEH C18 column (3×50 mm, pore size 1.7 µm), and absorption detection at 230 nm with incubation at 20 °C (Gradients: Method A: 0.0−0.5 min: 5% eluent B in eluent A; 0.5–5.5 min: 5-95% eluent B; 5.5–8.0 min: 95 % eluent B (eluent A = 0.1% formic acid in water, eluent B = 0.1 % formic acid in acetonitrile), method B: 0.0 − 0.5 min: 5% eluent B in eluent A; 0.5–5.5 min: 5-95% eluent B; 5.5–7.1 min: 95 % eluent B (eluent A = 0.1% formic acid in water, eluent B = 0.1 % formic acid in methanol). Data points were taken every 30 min for 6 h and at 24 h and 24.5 h.

albumin = target: T1, albumin (Bos taurus, UniProt P02769); assay: Albumin binding in fetal calf serum by SEC-ICP-MS; type: in vitro ADME; details: fetal calf serum 37 °C, 100 μM
T1 construct: tissue Sigma-Aldrich; host or cells: fetal calf serum
T1 sequence (P02769 25-607): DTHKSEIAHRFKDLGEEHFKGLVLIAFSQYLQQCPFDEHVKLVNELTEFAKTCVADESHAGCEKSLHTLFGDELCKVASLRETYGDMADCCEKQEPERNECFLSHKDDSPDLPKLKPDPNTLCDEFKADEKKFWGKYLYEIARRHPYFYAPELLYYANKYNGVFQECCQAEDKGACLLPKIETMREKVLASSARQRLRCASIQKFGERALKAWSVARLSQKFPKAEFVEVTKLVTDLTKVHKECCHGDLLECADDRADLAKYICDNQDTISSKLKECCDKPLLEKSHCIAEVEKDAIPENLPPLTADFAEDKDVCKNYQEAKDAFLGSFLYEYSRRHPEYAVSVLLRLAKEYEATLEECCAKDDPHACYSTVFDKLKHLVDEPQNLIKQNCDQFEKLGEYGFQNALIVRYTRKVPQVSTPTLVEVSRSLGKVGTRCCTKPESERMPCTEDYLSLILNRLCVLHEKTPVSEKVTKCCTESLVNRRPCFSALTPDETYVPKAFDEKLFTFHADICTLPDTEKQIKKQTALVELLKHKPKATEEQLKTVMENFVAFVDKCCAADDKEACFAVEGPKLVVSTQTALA
Protocol: Fetal calf serum was purchased from Sigma-Aldrich and buffered with 150 mM phosphate buffer (pH 7.4) to guarantee a stable pH. The platinum(IV) complexes were dissolved in 150 mM phosphate buffer (pH 7.4) to 1 mM and diluted 1:10 in serum to obtain a final concentration of 100 μM. The samples were then incubated in the autosampler at 37 °C for 24 h and analyzed at 0 h, 1 h, 4 h, and 24 h. Between each sample, a pure water blank was measured. For SEC-ICP-MS measurements, an Agilent 1260 Infinity system coupled to an Agilent 7800 ICP-MS equipped with a dynamic reaction cell was used. Oxygen (purity 5.5, Messer AustriaGmbH, Gumpoldskirchen, Austria) was used as reaction gas at 30% and 0.9 L/min flow.

[2] = test system: HCT116, HCT116/OxR, A2780, A2780/Cis cells; assay: 72 h cell viability (MTT) assay, all malignant cell models; type: cell-based, human
Protocol: (§1) Cells were seeded (3–4 ×10^3 cells/well) in 96-well plates in 100 µL and after 24 h recovery treated with 100 µL of compounds at the indicated concentrations in triplicates. After 72 h drug exposure cell viability was determined by 3-(4,5-dimethylthiazol-2-yl)-2,5-diphenyltetrazolium bromide (MTT)-vitality assay (EZ4U, Biomedica, Vienna, Austria) following the manufacturer’s recommendations, as published. Absorbance was measured at 450 nm (at 620 nm as reference) using the multimode plate reader Tecan Infinite 200 Pro (Zurich, Switzerland). Cytotoxicity was expressed as IC50 values calculated from full dose-response curves using the 4 parameter nonlinear regression model of GraphPad Prism 8 software (La Jolla, CA, USA).

CT26 cells = assay: 72 h cell viability (MTT) assay; type: cell-based, murine; details: CT26, 72 h
Protocol: as §1

A2780 cells = assay: 72 h cell viability (MTT) assay; type: cell-based, human; details: A2780, 72 h continuous exposure; read-out: IC50 value (95% confidence interval)
Protocol: as §1

A2780/Cis cells = assay: 72 h cell viability (MTT) assay; type: cell-based, human
Protocol: as §1

HCT116 cells = assay: 72 h cell viability (MTT) assay; type: cell-based, human; details: HCT116, 72 h continuous exposure; read-out: IC50 value (95% confidence interval)
Protocol: as §1

[3] = test system: HCT116 and HCT116/OxR cells; assay: In vitro platinum cell uptake by ICP-MS; type: cell-based, human; details: 3 h exposure
Protocol: Cells were seeded at 1.5 ×10^5 cells/well in six-well plates in 1.5 mL and after 24 h recovery treated with 500 µL of compounds at the indicated concentrations in triplicates. After 3 h drug exposure, cells were detached, washed twice with phosphate-buffered saline (PBS), dried at RT for 15 min and lysed in 100 µL HNO3 (69%, Rotipuran Supra, Carl Roth, Karlsruhe, Germany) for 1 h at RT. The lysate was added to fresh tubes containing 200 µL ddH2O. ICP-MS measurements were performed with an Agilent 8800 ICP-MS/MS instrument (Agilent Technologies, Tokyo, Japan). The sample introduction system consisted of a MicroMist nebulizer (200 μL min^−1 nominal sample uptake) and a quartz double-pass spray chamber. The instrument was tuned on a daily basis in order to achieve maximum sensitivity, low oxide formation, and low doubly charged ratios. Platinum was monitored in no gas mode with an integration time of 0.3 s. The flow injection measurements were performed with a bioinert HPLC 1260 (Agilent Technologies, Waldbronn, Germany), which was directly connected to the nebulizer of the ICP-MS/MS instrument with a PEEK tubing. The following chromatographic conditions were used: injection volume: 10 µL; flow rate: 0.30 mL min^-1; isocratic elution; CH3COONH4 (50 mM, pH = 6.8) aqueous solution was employed as mobile phase. The data were recorded and evaluated with the Agilent MassHunter Chromatography software package, MassHunter 4.6., 2019.

CT26 allografts = assay: In vivo anticancer activity, CT26 allografts; set-up: species or system BALB/c mice
Protocol: Eight-to nine-week-old female BALB/c mice bred in-house (originally Janvier) were kept in pathogen-free conditions and controlled environment with 12 h light-dark cycle. CT26 cells (5 × 10^5 in 50 µL serum-free RPMI medium) were injected subcutaneously (s.c.) into the right flank of the animals. […] Tumor growth was evaluated by daily recording of tumor size by caliper measurement. […] The reasons were primarily either enhanced tumor size or ulceration. For drug distribution (digestion and ICP-MS measurement details see below), histological and GSH determination experiments, mice were treated twice during one week and sacrificed 24 h after the last drug dosing. The animal experiments were performed according to the regulations of the Ethics Committee for the Care and Use of Laboratory Animals at the Medical University Vienna (proposal number BMBWF-V/3b 2020-0.380.502).

**Q.** Which “calculated half-life, aqueous stability” value ([1]; 1 mM, 100 mM phosphate buffer pH 7.4, 20 °C) does the source give for `CCCCS(=N)(=O)CCC(NC(=O)[O][Pt]1([O]C(C)=O)[O]C(=O)C(=O)[O]1)C(=O)O.NC1CCCCC1N` (mixture of isomers) [BSO-OxOAc, (OC-6-34)-Acetato(((1 S)-3-(butylsulfonimidoyl)-1-carboxypropyl)carbamato)((1 R,2 R)-1,2-cyclohexanediamino)oxalatoplatinum(IV)] here?
**A.** ~ 240 h

**Q.** And the “UHPLC peak integral, stability” value ([1]; t=0, 1 mM)?
**A.** 70.47 mAU

**Q.** What about the “UHPLC peak integral, stability” value ([1]; t=24 h, 1 mM) of the same molecule?
**A.** 66.25 mAU

**Q.** And the “bound to albumin fraction” value (albumin; t 0 h)?
**A.** 0%

**Q.** And the “free (low molecular weight fraction)” value (albumin; t 0 h)?
**A.** 100%

**Q.** And the “bound to albumin fraction” value (albumin; t 1 h)?
**A.** 0%

**Q.** And the “free (low molecular weight fraction)” value (albumin; t 1 h)?
**A.** 100%

**Q.** And the “bound to albumin fraction” value (albumin; t 4 h)?
**A.** 0%

**Q.** What about the “free (low molecular weight fraction)” value (albumin; t 4 h) of the same molecule?
**A.** 100%

**Q.** And the “bound to albumin fraction” value (albumin; t 24 h)?
**A.** 0%

**Q.** What about the “free (low molecular weight fraction)” value (albumin; t 24 h) of the same molecule?
**A.** 100%

**Q.** What about the “enhancement of IC50 values as compared to oxaliplatin” value [2] of the same molecule?
**A.** 10- to 50 fold

**Q.** And the “higher IC50 value as compared to oxaliplatin” value (CT26 cells)?
**A.** > 58 fold

**Q.** And the pIC50 (A2780 cells)?
**A.** 4.69

**Q.** And the pIC50 (A2780/Cis cells; A2780/Cis, 72 h continuous exposure, read-out: IC50 value (95% confidence interval))?
**A.** 4.55

**Q.** And the resistance factor (A2780/Cis cells; IC50 A2780/Cis divided by IC50 A2780)?
**A.** 1.4

**Q.** What about the pIC50 (HCT116 cells) of the same molecule?
**A.** 4.49

**Q.** What about the “intracellular accumulation in HCT116/OxR as compared to parental HCT116” value [3] of the same molecule?
**A.** only non-significantly altered

**Q.** And the “overall cellular platinum accumulation compared between compounds” value ([3]; both cell models)?
**A.** distinctly lower than of oxaliplatin

**Q.** What about the “tumor doubling time extended” value (CT26 allografts; CT26 allografts, twice a week for two weeks, equimolar doses) of the same molecule?
**A.** 1.2 fold

**Q.** What about the “maximal tumor growth inhibition” value (CT26 allografts; day 11, CT26 allografts, twice a week for two weeks, equimolar to 9 mg/kg oxaliplatin i.v.) of the same molecule?
**A.** 51.3%

**Q.** What about the “tumor volumes as compared to solvent controls” value (CT26 allografts; first two weeks of treatment) of the same molecule?
**A.** significantly reduced tumor volumes
